Earlier results on 1 molecule are cited in US8765149B2, “Low-oil pharmaceutical emulsion compositions comprising progestogen” (Besins Healthcare Luxembourg Sarl, priority 2010, dated 2014).

The test system of this data set is TBI patients. The following applies: two recent clinical trials.

With `CC(=O)[C@H]1CC[C@H]2[C@@H]3CCC4=CC(=O)CC[C@]4(C)[C@H]3CC[C@]12C` [progesterone, pregn-4-ene-3,20-dione], the “mortality of TBI patients” value is on record as “decreased mortality”; the “safety in TBI patients” value is “safe and well tolerated”.
